From patent publication US20120238604A1, “CYTOTOXIC COMPOUNDS” (Molecular Discovery Systems, priority 2009, published 2012)

What was measured:
[1] = system: HeLa cells expressing H2B-GFP; experiment: Inhibition of cell proliferation (GI50) by nuclear counts, IN Cell Analyser; format: cell-based, human; settings: HeLa
Protocol: Table 3 HeLa cells expressing H2B-GFP were plated in 96-well plates and exposed to concentrations ranging from 100 μM to […] of the indicated compounds C1-C78. The number of cells was then determined every 24 hours by imaging of the plates using an IN Cell Analyser (GE Healthcare), followed by measurement of the number of intact cell nuclei using Developer™ software (GE Healthcare). Drug concentrations that cause 50% inhibition of cell proliferation (GI50) were determined from the nuclear counts using GraphPad Prism software or ED50v10 freeware.

[2] = system: HeLa cells expressing H2B-GFP; experiment: Induction of mitotic arrest (EC50), mitotic index by phospho-histone 3 staining; format: cell-based; settings: Homo sapiens, concentration for 50% induction of mitotic arrest, overnight, values in nM, read-out: EC50 (mitosis) (HeLa)
Protocol: Parallel plates were treated overnight with the compounds to visualize the mitotic cells by staining with anti-phospho-histone 3 and Alexafluor 546 nm secondary antibodies after fixation with 4% paraformaldehyde. Following imaging of the nuclear GFP and phospho-histone 3 signals using an IN Cell Analyser (GE Healthcare), determination of the mitotic index by analysis of the images with Developer™ software (GE Healthcare) permitted estimation of the concentration that leads to 50% induction of the mitotic arrest (EC50). It can be seen that inhibition of cell proliferation and mitosis correlate well for the compounds tested.

[3] = system: purified porcine brain tubulin; experiment: In vitro microtubule assembly, light scattering at 350 nm; format: biochemical; settings: 3 and 6 μM, 37° C.
Protocol: In vitro polymerisation of purified porcine brain tubulin at 37° C. in the presence of compound C9 (3 and 6 μM), 15 μM nocodazole, 2 μM vinblastine or an equal volume of carrier DMSO was measured over time as light scattering at 350 nm.

[4] = system: Vascular endothelium MS-1 cells; experiment: Disruption of the microtubule cytoskeleton of vascular endothelium cells; format: cell-based; settings: 100 nM, 120 minutes
Description: After staining with Hoescht, TRITC-phalloidin, anti-beta tubulin antibody and Alexafluor 488 nm secondary antibody, the cells were imaged at 400× magnification by epifluorescence microscopy.

[5] = system: Vascular endothelium MS-1 cells; experiment: Disruption of vascular endothelium cell adhesion (cell capillaries on Matrigel); format: cell-based; settings: 300 nM, 60 minutes
Protocol: Following the addition of 300 nM compound C9 or an equivalent volume of DMSO carrier for 60 minutes, the extracellular matric plugs were imaged at 40× magnification by phase contrast microscopy.

[6] = system: HeLa cells expressing H2B-GFP; experiment: Perturbation of mitotic spindle organisation and assembly, anti-β-tubulin staining; format: cell-based, human; settings: 20 μM, overnight
Protocol: HeLa cells stably expressing a green fluorescent marker of nuclear DNA (H2B-GFP) were exposed overnight to carrier (DMSO) or 20 μM compounds A1 and B3. The cells were then fixed with methanol, stained with mouse monoclonal anti-β-tubulin antibody and Alexafluor 546 nm goat anti-mouse antibody, and fluorescent signal visualised by microscopy. The open circle indicates a cell with a perturbed mitotic spindle while the arrow indicates a cell with a mostly disassembled mitotic spindle.
These cells were exposed overnight to carrier (0.1% (v/v) DMSO) or an equivalent volume of DMSO containing compounds A1 and B3 (final concentration in the culture medium was 20 μM). The cells were then briefly rinsed with phosphate-buffered saline (PBS) prior to fixation with 100% methanol at −20° C. The fixed cells were then stained with mouse monoclonal anti-β-tubulin antibody and Alexafluor 546 nm goat anti-mouse antibody (diluted 400× from commercial stocks into PBS containing 10 mg/ml bovine serum albumin (BSA)). The GFP and 546 nm fluorescence signals were then visualised using a microscope equipped for digital confocal epifluorescence imaging. The open circle in FIG. 1 represents a cell with a perturbed mitotic spindle while the arrow points to a cell with a mostly unassembled mitotic spindle.

[7] = system: HeLa cells expressing H2B-GFP; experiment: Induction of mitotic arrest, phase-contrast microscopy; format: cell-based, human; settings: overnight; 20 μM compound B3 or 100 nM paclitaxel
Protocol: (A) HeLa cells were exposed overnight to carrier (DMSO), 20 μM compound B3 or 100 nM paclitaxel, and visualized by phase-contrast microscopy.
FIG. 2 (A) The H2B-GFP-expressing HeLa cells (grown under identical culture conditions as described in Example 1) were exposed overnight to carrier (0.1% (v/v) DMSO), 20 μM compound B3 or 100 nM paclitaxel in DMSO. The cells were then visualized using a phase-contrast microscope equipped for digital imaging.

[8] = system: HeLa cells expressing H2B-GFP; experiment: Induction of mitotic arrest, phospho-histone 3 marker of mitosis; format: cell-based, human; settings: 4 hours; 20 μM compound or 100 nM paclitaxel
Protocol: (B) HeLa cells exposed for 4 hours to carrier (DMSO), 20 μM compound A1 or 100 nM paclitaxel were fixed and stained with anti-phospho-histone 3 marker of mitosis followed by fluorescent secondary antibody. The percentage of cells positive for phospho-histone 3 was determined by digital imaging and analysis of the fluorescence signals (B).
FIG. 2 (B) The H2B-GFP-expressing HeLa cells were treated for 4 hours with carrier (0.1% (v/v) DMSO), 20 μM compound A1 or 100 nM paclitaxel in DMSO. The cells were then briefly rinsed with phosphate-buffered saline (PBS) prior to fixation with 4% para-formaldehyde at ambient temperature. The fixed cells were then stained with mouse monoclonal anti-phospho-histone 3 antibody and Alexafluor 546 nm goat anti-mouse antibody (diluted 400× from commercial stocks into PBS containing 10 mg/ml bovine serum albumin (BSA)). The GFP and 546 nm fluorescence signals were then captured with an IN Cell Analyser 1000 (GE Healthcare) and the percentage of cells stained with the anti-phospho-histone 3 antibody determined using Developer™ software (GE Healthcare).

[9] = system: HeLa cells expressing H2B-GFP; experiment: Dose-dependent inhibition of cell proliferation, cell counts over 0-96 h; format: cell-based, human; settings: 0.2-20 μM
Protocol: FIG. 4. Dose-dependent inhibition of cell proliferation by compound B3. The proliferation of HeLa cells at decreasing concentrations (from 20 to 0.2 μM) of polokinase inhibitor (PKi), KSP inhibitor (STLC) and compound B3 was determined (relative to paclitaxel at 400 to 10 nM) by counting of the cells over time (0-96 h).
FIG. 4 HeLa cells expressing H2B-GFP were plated in multi-well plates and exposed to 0.2-20 μM of polokinase inhibitor (PKi), KSP inhibitor (STLC) and compound B3, or 10-400 nM of paclitaxel. The number of cells at 0, 24, 48, 72 and 96 h of treatment was determined by imaging of the GFP signal in the plates with an IN Cell Analyser (GE Healthcare) followed by measurement of the number of intact cell nuclei using Developer™ software (GE Healthcare).

[10] = system: HeLa cells expressing H2B-GFP; experiment: Induction of apoptosis, Annexin V binding; format: cell-based, human; settings: overnight; 20 μM compound A1 or 100 nM paclitaxel
Protocol: HeLa cells were exposed overnight to 20 μM compound A1 or 100 nM paclitaxel, stained with a fluorescent Annexin V marker of apoptosis and visualised by epifluorescence microscopy following fixation.
FIG. 3 The H2B-GFP-expressing HeLa cells were treated overnight with 20 μM compound A1 or 100 nM paclitaxel. The cells were then exposed to Annexin-V tagged with Alexafluor 546 nm and visualized using an epifluorescence microscope equipped for digital imaging following fixation with 4% para-formaldehyde.

Compound	Anti-proliferative activity (effect of substitution, in words) ([1]; text comment on Table 3)	GI50 ([1]; Homo sapiens, concentration causing 50% inhibition of cell proliferation, nuclear counts every 24 hours) [nM]	EC50 [2] [nM]	Inhibition of in vitro microtubule assembly [3]	Disruption of the microtubule cytoskeleton [4]	Disruption of vascular endothelium cell adhesion [5]	Effect on mitotic spindle organisation and assembly [6]	Accumulation of cells with mitotic phenotype [7]	Accumulation of cells stained with phospho-histone 3 marker of mitosis [8]	Concentration potently blocking cell proliferation [9] [µM]	Induction of apoptotic cells (Annexin-V binding) [10]
COc1ccccc1/C=N/NC(=S)Nc1ccccc1C(F)(F)F [C9]	greatly increase the anti-proliferative activity	10	10	Dose-dependent inhibition of in vitro microtubule assembly	Disruption of the microtubule cytoskeleton of vascular endothelium cells	Disruption of vascular endothelium cell adhesion					
COc1ccccc1/C=N/NC(=S)Nc1cccc(C)c1 [B3, 2-METHOXYBENZALDEHYDE N-(3-METHYLPHENYL)THIOSEMICARBAZONE]							profoundly perturbs spindle function by blocking the assembly of spindle microtubule fibres	pronounced accumulation of round and translucent cells representing the mitotic phenotype	accumulation of cells that are stained with the phospho-histone 3 marker of mitosis	> 1	
CC(=O)O[C@H]1C(=O)[C@@]2(C)[C@H]([C@H](OC(=O)c3ccccc3)[C@]3(O)C[C@H](OC(=O)[C@H](O)[C@@H](NC(=O)c4ccccc4)c4ccccc4)C(C)=C1C3(C)C)[C@]1(OC(C)=O)CO[C@@H]1C[C@@H]2O [paclitaxel, reference compound]								pronounced accumulation of round and translucent cells representing the mitotic phenotype	accumulation of cells that are stained with the phospho-histone 3 marker of mitosis		induction of apoptotic cells
